{
  "source": "BindingDB's records for doi:10.1016/j.bmcl.2017.09.011",
  "about": "(Alma Mater Studiorum-University of Bologna, 2017)",
  "biological_target": "DNA topoisomerase 2-alpha (Homo sapiens, UniProt P11388)",
  "sequence (P11388 whole entry)": "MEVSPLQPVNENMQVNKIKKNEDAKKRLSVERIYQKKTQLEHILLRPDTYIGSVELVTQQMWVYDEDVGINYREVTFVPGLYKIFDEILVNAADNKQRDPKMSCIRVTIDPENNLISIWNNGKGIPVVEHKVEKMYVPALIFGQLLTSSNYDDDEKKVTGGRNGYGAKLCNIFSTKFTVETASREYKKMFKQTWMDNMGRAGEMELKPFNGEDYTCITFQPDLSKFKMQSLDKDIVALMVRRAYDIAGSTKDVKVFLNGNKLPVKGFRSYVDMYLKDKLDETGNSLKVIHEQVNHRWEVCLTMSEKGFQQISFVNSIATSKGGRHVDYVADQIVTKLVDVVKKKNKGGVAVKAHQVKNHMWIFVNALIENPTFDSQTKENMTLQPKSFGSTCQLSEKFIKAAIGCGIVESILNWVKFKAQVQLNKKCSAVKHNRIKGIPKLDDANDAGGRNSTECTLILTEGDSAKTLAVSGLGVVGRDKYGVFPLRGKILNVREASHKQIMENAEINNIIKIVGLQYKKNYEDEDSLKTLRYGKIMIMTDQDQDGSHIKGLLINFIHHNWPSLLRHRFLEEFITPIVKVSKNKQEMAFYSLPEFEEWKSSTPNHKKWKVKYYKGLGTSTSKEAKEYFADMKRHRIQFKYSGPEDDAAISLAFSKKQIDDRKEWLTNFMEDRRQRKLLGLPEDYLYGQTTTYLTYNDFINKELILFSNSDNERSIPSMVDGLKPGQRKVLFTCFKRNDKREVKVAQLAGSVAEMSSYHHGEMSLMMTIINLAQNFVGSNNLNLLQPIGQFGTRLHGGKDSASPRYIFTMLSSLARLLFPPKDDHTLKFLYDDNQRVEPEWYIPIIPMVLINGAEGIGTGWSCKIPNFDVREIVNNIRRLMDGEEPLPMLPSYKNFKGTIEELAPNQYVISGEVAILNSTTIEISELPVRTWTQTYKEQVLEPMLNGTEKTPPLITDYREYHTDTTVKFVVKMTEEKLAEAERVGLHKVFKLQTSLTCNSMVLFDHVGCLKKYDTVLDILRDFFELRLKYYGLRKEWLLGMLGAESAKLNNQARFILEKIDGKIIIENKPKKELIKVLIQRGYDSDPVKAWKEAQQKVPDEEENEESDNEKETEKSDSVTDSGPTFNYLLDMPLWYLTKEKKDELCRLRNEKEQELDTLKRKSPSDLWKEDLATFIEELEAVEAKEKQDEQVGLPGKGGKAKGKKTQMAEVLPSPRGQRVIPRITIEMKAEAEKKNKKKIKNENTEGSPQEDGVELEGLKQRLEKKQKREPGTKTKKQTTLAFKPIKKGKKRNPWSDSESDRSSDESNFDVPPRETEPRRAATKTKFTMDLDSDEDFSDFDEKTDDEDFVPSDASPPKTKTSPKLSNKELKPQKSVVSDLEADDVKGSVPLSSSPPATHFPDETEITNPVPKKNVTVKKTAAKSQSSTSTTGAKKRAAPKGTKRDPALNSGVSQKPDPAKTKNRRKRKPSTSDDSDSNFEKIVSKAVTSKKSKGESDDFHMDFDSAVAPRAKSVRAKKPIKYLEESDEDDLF",
  "experiment": "ChEBML_1696318",
  "method": "Inhibition of recombinant human topoisomerase-2alpha expressed in Saccharomyces cerevisiae JEL1 harboring topoisomerase1 deletion mutant assessed as reduction in enzyme-mediated [gamma32P]ATP hydrolysis using relaxed pBR322 DNA as substrate after 8 mins",
  "data": [
    {"smiles": "NCCCCNCC(O)COc1cc(O)c2c(=O)c3ccccc3oc2c1", "note": "(stereo unspecified)", "values": [
      {"measurement": "IC50", "value": 2500, "unit": "nM"}
    ]}
  ]
}
